Reference: patent publication US6096747A, “Phenylaminocarbonyl derivatives and processes for their preparation” (Celltech Therapeutics Limited, priority 1992, dated 2000)

What was measured:
PDE IV = test: Isolated enzyme PDE IV inhibition (HL60 cells); type: biochemical; conditions: Ki PDE IV HL60 at (1 μM); pH 7.5, 30° C.; read-out: approximate Ki, PDE IV HL60
Description: The potency and selectivity of the compounds of the invention was determined using a battery of distinct PDE isoenzymes as follows:
The enzymes were purified to kinetic homogeneity using standard chromatographic techniques.
Phosphodiesterase activity was assayed as follows. The reaction was conducted in 150 μl of standard mixture containing (final concentrations): 50 mM TES-NaOH buffer (pH 7.5), 10 mM MgCl2, 0.1 μM [^3 H]-cAMP and vehicle or various concentrations of the test compounds. The reaction was initiated by addition of enzyme and conducted at 30° C. for between 5 to 30 mins. The reaction was terminated by addition of 50 μl 2% trifluoroacetic acid containing [^14 C]-5'AMP for determining recovery of the product. An aliquot of the sample was then applied to a column of neutral alumina and the [^3 H]-cAMP eluted with 10 ml 0.1 TES-NaOH buffer (pH8). The [^3 H]-5'-AMP product was eluted with 2 ml 2M NaOH into a scintillation vial containing 10 ml of scintillation cocktail. Recovery of [^3 H]-5'AMP was determined using the [^14 C]-5'AMP and all assays were conducted in the linear range of the reaction.

right atrial muscle = conditions: selective PDE IV / PDE III reference inhibitors; background statement; cited from earlier work
papillary muscle = conditions: selective PDE IV / PDE III reference inhibitors; background statement; cited from earlier work
[1] = non-specific PDE inhibitor; cited from earlier work

Row | SMILES | Ki (PDE IV) [nM] | direct effects on atria (chronotropic), reference inhibitors (right atrial muscle) | direct effects on papillary muscle (inotropic), reference inhibitors (papillary muscle) | cardiovascular changes [1]
1 | COc1ccc(NC(=O)c2ccccc2)cc1OC1CCCC1 [Example 1, N-Benzoyl-3-cyclopentyloxy-4-methyloxyaniline] | ~391 | – | – | –
2 | COc1ccc(NC(=O)c2ccccc2[N+](=O)[O-])cc1OC1CCCC1 [Example 3, 3-Cyclopentyloxy-4-methyloxy-N-(2-Nitrobenzoyl)aniline] | ~179 | – | – | –
3 | Cc1[nH]c(=O)c(C#N)cc1-c1ccncc1 [milrinone] | – | positive chronotropic and inotropic effects | positive chronotropic and inotropic effects | –
4 | COc1ccc(C2CNC(=O)C2)cc1OC1CCCC1 (stereo not shown) [rolipram] | – | do not have any direct effects | do not have any direct effects | –
5 | Cn1c(=O)c2[nH]cnc2n(C)c1=O [theophylline] | – | – | – | significant cardiovascular changes such as tachycardia
